Measurements: patent US10125135B2, “Chemical compounds” (AstraZeneca AB, priority 2016, dated 2018)
Values after ≈ are worked out from the molar mass of the structure shown.

Columns and labels:
[1] = Human hepatocyte assay (metabolic stability); assay type: in vitro ADME; conditions: human hepatocytes, 37° C., 1.0×10^6 viable cells/mL; read-out: Clint (in vitro intrinsic clearance)
Description: The metabolic stability of compounds in human hepatocytes was assessed using the following protocol: • 1. Prepare 10 mM stock solutions of compound and control compounds in appropriate solvent (DMSO). Place incubation medium (L-15Medium) in a 37° C. water bath, and allow warming for at least 15 minutes prior to use. • 2. Add 80 μL of acetonitrile to each well of the 96-well deep well plate (quenching plate). • 3. In a new 96-well plate, dilute the 10 mM test compounds and the control compounds to 100 μM by combining 198 μL of acetonitrile and 2 μL of 10 mM stock. • 4. Remove a vial of cryopreserved (less than −150° C.) human hepatocytes (LiverPool™ 10 Donor Human hepatocytes obtained from Celsis IVT. Chicago, Ill. (Product No. S01205)) from storage, ensuring that vials remain at cryogenic temperatures until thawing process ensues. As quickly as possible, thaw the cells by placing the vial in a 37° C. water bath and gently shaking the vials. Vials should remain in water bath until all ice crystals have dissolved and are no longer visible. After thawing is completed, spray vial with 70% ethanol, transfer the vial to a bio-safety cabinet. • 5. Open the vial and pour the contents into the 50 mL conical tube containing thawing medium. Place the 50 mL conical tube into a centrifuge and spin at 100 g for 10 minutes. […] Using Cellometer® Vision, count cells and determine the viable cell density. Cells with poor viability (<80% viability) are not acceptable for use. Dilute cells with incubation medium to a working cell density of 1.0×10^6 viable cells/mL. • 7. Transfer 247.5 μL of hepatocytes into each well of a 96-well cell culture plate. Place the plate on Eppendorf Thermomixer Comfort plate shaker to allow the hepatocytes to warm for 10 minutes. • 8. Add 2.5 μL of 100 μM test compound or control compounds into an incubation well containing cells, mix to achieve a homogenous suspension at 0.5 min, which when achieved, will define the 0.5 min time point. At the 0.5 min time, transfer 20 μL incubated mixture to wells in a “Quenching plate” followed by vortexing. • 9. Incubate the plate at 37° C. at 900 rpm on an Eppendorf Thermomixer Comfort plate shaker. At 5, 15, 30, 45, 60, 80, 100 and 120 min, mix the incubation system and transfer samples of 20 μL incubated mixture at each time point to wells in a separate “Quenching plate” followed by vortexing. • 10. Centrifuge the quenching plates for 20 minutes at 4,000 rpm. 4 different compounds are pooled into one cassette and used for LC/MS/MS analysis.
All calculations are carried out using Microsoft Excel. Peak areas are determined from extracted ion chromatograms. In vitro intrinsic clearance (in vitro Clint, in μL/min/10^6 cells) of parent compound is determined by regression analysis of the Ln percent parent disappearance vs. time curve. The in vitro intrinsic clearance (in vitro Clint, in μL/min/10^6 cells) is determined from the slope value using the following equation and is shown in Table C:
V=incubation volume (0.25 mL);
N=number of hepatocytes per well (0.25×10 ^6 cells).

[2] = Thermodynamic solubility, shake-flask; assay type: physicochemical; conditions: thermodynamic from solid; aqueous phosphate buffer pH 7.4, 24 hours at 25° C.
Description: The thermodynamic solubility of a research compound is measured under standard conditions. It is a shake-flask approach that uses 10 mM DMSO solutions which are supplied from the Compound Managements liquid store and is a high throughput method. The dried compounds are equilibrated in an aqueous phosphate buffer (pH 7.4) for 24 hours at 25° C., the portion with the dissolved compound is then separated from the remains. The solutions are analyzed and quantified using UPLC/MS/MS, QC-samples are incorporated in each assay-run to ensure the quality of the assay.

[3] = Human plasma protein binding, equilibrium dialysis (RED); assay type: in vitro ADME; conditions: dialysis for 18 hours
Description: Human Plasma Protein Binding
The automated equilibrium dialysis assay in human plasma uses the RED (Rapid Equilibrium Dialysis) Device and sample handling. The assay generally runs over two to three days including delivery of results. After dialysis for 18 hours, plasma and buffer samples are prepared for analysis by liquid chromatography and mass spectrometry. Samples are generally tested in singlicates and quantified by LC/MSMS by using a 7-point calibration curve in plasma. The compounds are pooled together in plasma pools up to 10 compounds. Three reference compounds are used in each run, Propranolol, Metoprolol and Warfarin. Warfarin is used as a control in each pool and Propranolol and Metoprolol are placed randomly in each run. An in-house Excel macro is used for preparation of files for the robot and the mass spectrometer and also used for the calculations of fraction unbound (fu %) in plasma.

Compound	hepatocyte CLint at 1 µM [1]	solubility at 24 h [2]	Human plasma protein binding (% free) [3]
COc1cc(OCCN2CC(CF)C2)ccc1[C@@H]1c2ccc3[nH]ncc3c2C[C@@H](C)N1CC(C)C [Example 9, (6S,8R)-6-(4-(2-(3-(fluoromethyl)azetidin-1-yl)ethoxy)-2-methoxyphenyl)-7-isobutyl-8-methyl-6,7,8,9-tetrahydro-3H-pyrazolo[4,3-f]isoquinoline]	3 µL/min/1e6 cells	> 1000 µM	52 % free
COc1cc(OCCN2CC(CF)C2)ccc1[C@@H]1c2ccc3[nH]ncc3c2C[C@@H](C)N1CC(C)(C)F [Example 5, (6S,8R)-7-(2-fluoro-2-methylpropyl)-6-(4-(2-(3-(fluoromethyl)azetidin-1-yl)ethoxy)-2-methoxyphenyl)-8-methyl-6,7,8,9-tetrahydro-3H-pyrazolo[4,3-f]isoquinoline]	12 µL/min/1e6 cells	263 µM (≈ 131 µg/mL)	6.2 % free
C[C@@H]1Cc2c(ccc3[nH]ncc23)[C@@H](c2ccc(OCCN3CC(CF)C3)cn2)N1CC(F)F [Example 51, (6S,8R)-7-(2,2-difluoroethyl)-6-(5-(2-(3-(fluoromethyl)azetidin-1-yl)ethoxy)pyridin-2-yl)-8-methyl-6,7,8,9-tetrahydro-3H-pyrazolo[4,3-f]isoquinoline]	5 µL/min/1e6 cells	974 µM (≈ 448 µg/mL)	49 % free
C[C@@H]1Cc2c(ccc3[nH]ncc23)[C@@H](c2ccc(OCCN3CC(CF)C3)cn2)N1CC1(F)CC1 [Example 8, (6S,8R)-7-((1-fluorocyclopropyl)methyl)-6-(5-(2-(3-(fluoromethyl)azetidin-1-yl)ethoxy)pyridin-2-yl)-8-methyl-6,7,8,9-tetrahydro-3H-pyrazolo[4,3-f]isoquinoline]	8 µL/min/1e6 cells	> 1000 µM	34 % free
C[C@@H]1Cc2c(ccc3[nH]ncc23)[C@@H](c2ccc(OCCN3CC(CF)C3)cn2)N1CC(F)(F)F [Example 49, (6S,8R)-6-(5-(2-(3-(fluoromethyl)azetidin-1-yl)ethoxy)pyridin-2-yl)-8-methyl-7-(2,2,2-trifluoroethyl)-6,7,8,9-tetrahydro-3H-pyrazolo[4,3-f]isoquinoline]	3 µL/min/1e6 cells	> 1000 µM	23 % free
COc1cc(OCCN2CC(CF)C2)ccc1[C@@H]1c2ccc3[nH]ncc3c2C[C@@H](C)N1CC1(F)CC1 [Example 6, (6S,8R)-7-((1-fluorocyclopropyl)methyl)-6-(4-(2-(3-(fluoromethyl)azetidin-1-yl)ethoxy)-2-methoxyphenyl)-8-methyl-6,7,8,9-tetrahydro-3H-pyrazolo[4,3-f]isoquinoline]	7 µL/min/1e6 cells	957 µM (≈ 475 µg/mL)	21 % free
